Patent publication US10815534B2, “Methods and materials for treating estrogen receptor positive breast cancer” (Mayo Foundation for Medical Education and Research, priority 2016, dated 2020)

Columns and labels:
[1] = test system: letrozole resistant cells; assay: Sensitization of letrozole resistant cells by overexpression of CSMD1; type: cell-based; conditions: letrozole resistant cells overexpressing CSMD1
ERα+ breast cancer cells = assay: Sensitization of ERα+ breast cancer cells by overexpression of CSMD1; type: cell-based; conditions: ERα+ breast cancer cells overexpressing CSMD1
[2] = test system: human lymphoblastoid cells; assay: Sensitivity of human lymphoblastoid cell lines selected by rs6990851 genotype (AA, AG, GG) to aromatase inhibitors; type: cell-based; conditions: rs6990851 GG versus AA and AG lymphoblastoid cells
ERα [3] = target: T1, ERα (Homo sapiens, UniProt P03372); conditions: FIG. 7, ERα/GADPH fold change
T1 sequence (P03372 1-595): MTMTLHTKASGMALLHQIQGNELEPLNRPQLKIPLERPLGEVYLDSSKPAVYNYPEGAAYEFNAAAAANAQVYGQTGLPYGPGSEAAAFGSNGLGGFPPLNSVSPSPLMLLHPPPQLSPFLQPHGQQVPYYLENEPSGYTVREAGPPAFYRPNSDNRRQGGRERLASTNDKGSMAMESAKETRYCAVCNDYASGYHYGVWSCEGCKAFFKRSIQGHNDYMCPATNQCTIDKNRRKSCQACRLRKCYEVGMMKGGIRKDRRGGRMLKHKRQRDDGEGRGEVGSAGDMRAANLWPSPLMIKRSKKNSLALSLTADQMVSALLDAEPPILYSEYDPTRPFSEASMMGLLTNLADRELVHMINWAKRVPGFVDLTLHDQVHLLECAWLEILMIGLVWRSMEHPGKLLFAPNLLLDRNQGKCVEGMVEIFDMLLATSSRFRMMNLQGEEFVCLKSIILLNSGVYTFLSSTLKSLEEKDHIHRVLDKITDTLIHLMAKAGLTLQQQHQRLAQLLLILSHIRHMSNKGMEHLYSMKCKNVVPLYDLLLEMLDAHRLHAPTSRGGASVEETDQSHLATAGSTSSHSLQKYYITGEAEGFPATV

ERα [4] = target: T1, ERα; conditions: 0-40 μM, traces above the background

| ERα degradation (ERα [3]) | direct binding to ERα (SPR sensograms) (ERα [4]) | SMILES | sensitization by CSMD1 overexpression [1] | sensitization by CSMD1 overexpression (ERα+ breast cancer cells) | sensitivity of homozygous GG variant cells to treatment [2] |
| --- | --- | --- | --- | --- | --- |
| – | – | CC(C)(C#N)c1cc(Cn2cncn2)cc(C(C)(C)C#N)c1 [anastrozole] | sensitized | sensitized | more sensitive |
| not | No interactions were observed | N#Cc1ccc(C(c2ccc(C#N)cc2)n2cncn2)cc1 [letrozole] | not | – | not observed |
